In US11083735B2, “Methods for treating sleep disorders, sleep disturbances, and related symptoms using aminosterol compositions” (Enterin, Inc., priority 2017, dated 2021):

Columns and labels:
[1] = test system: patients with PD and constipation; test: Phase 2 trial: adverse events, all dosed patients (Stage 1 and 2); type: in vivo, human
Procedure: Safety and Adverse Event (AE) Profile: Fifty patients were enrolled and 44 were dosed. In Stage 1, 10 patients were dosed, 1 (10%) withdrew prior to completion and 9 (90%) completed dosing. In stage 2, 6 (15%) patients had ≥3 CSBM/week at the end of the run-in period and were excluded, 34 patients were dosed and bowel response was assessable in 31 (91%). Two patients (5.8%) were terminated prior to completion because of recurrent dizziness, and 3 others withdrew during dosing (8.8%): 2 because of diarrhea and 1 because of holiday. Fifteen patients were randomized.
Most AEs were confined to the GI tract (88% in Stage 1 and 63% in Stage 2). The most common AE was nausea which occurred in 4/10 (40%) patients in Stage 1 and in 18/34 (52.9%) in Stage 2 (Table 6). Diarrhea occurred in 4/10 (40%) patients in Stage 1 and 15/34 (44%) in Stage 2. One patient withdrew because of recurrent diarrhea. Other GI related AEs included abdominal pain 11/44 […], flatulence 3/44 (6.8%), vomiting 3/44 (6.8%), worsening of acid reflux 2/44 (4.5%), and worsening of hemorrhoids 1/44 (2.2%). […] The only other noteworthy AE was dizziness 8/44 (18%). Dizziness was graded as moderate in one patient who was receiving an alpha-adrenergic blocking agent (Terazosin). This patient was withdrawn from the study and recovered spontaneously.

[2] = test system: patients with PD; test: Phase 2 trial Stage 2: circadian rhythm of wrist skin temperature (I-Button); type: in vivo, human
Procedure: FIGS. 20A-F show the effect of squalamine (ENT-01) on circadian rhythm. The figures depict the results of circadian non-parametric analysis of wrist skin temperature rhythm throughout each condition (baseline, treatment with highest dose of squalamine (ENT-01) and washout). The following parameters were measured: […] (FIG. 20A), inter-daily stability (IS) (FIG. 20B), relative amplitude (RA) (FIG. 20C), circadian function index (FIG. 20D), M5V (FIG. 20E), which refers to the five consecutive hours with the highest temperature or high somnolence, and L10V (FIG. 20F), which indicates the mean of the ten consecutive hours with lowest temperature or high activation. […] Student's paired t-test, *p<0.05, **p<01, ***p<0.001.Values expressed as mean±SEM (n=12 in each condition).
(6) I-Button Temperature Assessment. […] From the collected data, the mesor, amplitude, acrophase (time of peak temperature), Rayleight test (an index of interdaily stability), mean waveforms are calculated.);
Circadian rhythm of skin temperature was evaluable in 12 patients (i.e., those who had recordings that extended from baseline through washout). Circadian system functionality was evaluated by continuously monitoring wrist skin temperature using a temperature sensor (Thermochron iButton DS1921H; Maxim, Dallas, Tex.) (Sarabia et al. 2008). […]

[3] = Solubility in water; type: physicochemical
[4] = Preclinical oral studies in rats (bioavailability, portal blood, tolerability)
[5] = test system: vagal afferent fibers; test: Multiunit firing of a jejunal branch of the vagus (mesenteric nerve); design: species or system mouse; conditions: luminal squalamine
Procedure: Squalamine was applied into the lumen by gravity feed 11 min after beginning the recording. […] The Control represents background discharge before applying squalamine, and the Peak gives the average firing frequency during a 3 min period at the peak of the response.
To determine whether the electrical activity stimulated by the luminal application of squalamine was principally contained within the ENS of the intestine, or whether it communicated information rostrally to the CNS, a further experiment was designed in which multiunit fiber firing rates were measured from a single jejunal branch of the vagus. Squalamine was introduced 11 minutes after recordings were begun. Vagal afferent firing frequency increased almost immediately thereafter to 3 fold the initial rate within a few minutes.

SMILES: CC(C)[C@@H](CC[C@@H](C)[C@H]1CC[C@H]2[C@@H]3[C@H](O)C[C@H]4C[C@@H](NCCCNCCCCN)CC[C@]4(C)[C@H]3CC[C@]12C)OS(=O)(=O)O (single isomer, unassigned; ent-01) [ENT-01]
- worsening of hemorrhoids ([1]; 1/44): 2.2%
- worsening of acid reflux ([1]; 2/44): 4.5%
- flatulence ([1]; 3/44): 6.8%
- vomiting ([1]; 3/44): 6.8%
- dizziness ([1]; 8/44): 18%
- abdominal pain ([1]; 11/44): 32%
- markers of healthy circadian function (IS, RA, CFI, IV) ([2]; fixed dose vs baseline, 12 patients): improved all markers of healthy circadian function
- circadian parameters (IS, CFI) ([2]; wash-out period): improvement persisted
- solubility in water ([3]; neutral pH): weakly soluble
- solubility in water ([3]; pH<3.5 (the pH of gastric fluid)): readily dissolves
- absorption from the intestine ([4]; portal blood concentrations following oral dosing of radioactive ENT-01 to rats): low
- tolerability ([4]; rats): well tolerated
- oral bioavailability ([4]; rats, preclinical studies): about 0.1%

SMILES: CC(C)[C@@H](CC[C@@H](C)[C@H]1CC[C@H]2[C@@H]3[C@H](O)C[C@H]4C[C@@H](NCCCNCCCCN)CC[C@]4(C)[C@H]3CC[C@]12C)OS(=O)(=O)O [squalamine]
- persistence of increased firing rate [5]: at least 20 minutes
- vagal afferent firing frequency relative to the initial rate ([5]; within a few minutes): 3 fold
